# Columns and labels:
# [1] = Conductivity testing (calculated CMC); format: physicochemical; conditions: for Calculated CMC, All Points: all data points; for Calculated CMC, Average: average of outer, inner, all points; for Calculated CMC, Inner Points: inner data points; for Calculated CMC, Outer Points: outer data points
# Procedure: Conductivities were measured using a VWR 23609-216 Pure H2O Tester conductivity meter. The meter probe was submerged into the test solution and swirled gently. Once the meter settled, the value was recorded.
# The conductivity of the solutions of Example 7 were tested at dilutions ranging from 0.1 M to 0.001 M. The data was plotted on a logarithmic scale and analyzed in the style of Heard and Ashworth. For each sample, three graphs were reported and fitted with a trend curve: outer data points, inner data points, all data points. […] An average CMC value was determined from the three trend samples (outer data points, inner data points, all data points) in order to more accuracy predict the CMC value.
# LINEST was utilized to determine the slope and intercept for each line, and a combination of INTERCEPT and SLOPE was used to determine the intersection of the two fitted lines. The Critical Micelle Concentration (CMC) was determined for each of these plots by the intercept of the two lines. Set forth below in Table 5 is the calculated CMC for each graph and the average CMC.
# [2] = Bubble pressure tensiometry (dynamic surface tension, calculated CMC); format: physicochemical; conditions: for Calculated CMC: bubble tensiometry
# Procedure: Dynamic surface tensions of certain formulations were measured using a KRÜSS BP100 BPT Mobile bubble pressure tensiometer. Samples of the solution of Example 7 were tested by adding the test solution to a glass dish and lowering the disposable capillary tip and temperature probe into the solution. The dynamic setting was selected, and the instrument was set to collect 30 data points, the bubble age increasing from about 10 ms to about 30,000 ms.
# Bubble tensiometry was used to calculate the Critical Micelle Concentration (CMC) value for each of the solutions.
# FIG. 1 presents a comparison of the bubble age to surface tension for RM14A at CMC, sub-CMC, and super-CMC concentrations. FIG. 2 presents a comparison of the bubble age to surface tension for RM14B at CMC, sub-CMC, and super-CMC concentrations. FIG. 3 presents a comparison of the bubble age to surface tension for RM14C at CMC, sub-CMC, and super-CMC concentrations. FIG. 4 presents a comparison of the bubble age to surface tension for RM12A, RM13A, RM14A, and RM15A at super-CMC concentrations. FIG. 5 presents a comparison of the bubble age to surface tension for RM12A, RM13A, RM14A, and RM15A at CMC concentrations. FIG. 6 presents a comparison of the bubble age to surface tension for RM12A, RM13A, RM14A, and RM15A at CMC concentrations. FIG. 7 presents a comparison of bubble age to surface tension for RM12A, RM13A, RM14A, and RM15A at sub-CMC concentrations.
Structure (SMILES),"Calculated CMC, All Points [1] [M]","Calculated CMC, Average [1] [M]","Calculated CMC, Inner Points [1] [M]","Calculated CMC, Outer Points [1] [M]",Calculated CMC [2] [M],"surface tension versus bubble age (rate and magnitude of reduction) ([2]; sub-CMC, CMC and super-CMC concentrations, FIGS. 1-7)"
"N=C(NCCCCCCNC(=N)NC(=N)Nc1ccc(Cl)cc1)NC(=N)Nc1ccc(Cl)cc1.O=C(O)[C@H](O)[C@@H](O)[C@H](O)[C@H](O)CO.O=C(O)[C@H](O)[C@@H](O)[C@H](O)[C@H](O)CO [RM12B, Chlorhexidine digluconate]",0.0133,0.0127,0.0131,0.0117,0.0195,–
"N=C(NCCCCCCNC(=N)NC(=N)Nc1ccc(Cl)cc1)NC(=N)Nc1ccc(Cl)cc1.O=C(O)C(O)C(O)C(O)C(O)C(O)CO.O=C(O)C(O)C(O)C(O)C(O)C(O)CO [RM13A, Chlorhexidine di-α-glucoheptonate]",0.0132,0.0123,0.0122,0.0115,0.0200,–
"N=C(NCCCCCCNC(=N)NC(=N)Nc1ccc(Cl)cc1)NC(=N)Nc1ccc(Cl)cc1.O=C(O)C(O)C(O)C(O)C(O)C(O)CO.O=C(O)C(O)C(O)C(O)C(O)C(O)CO [RM13C, Chlorhexidine di-α-glucoheptonate]",0.0130,0.0126,0.0134,0.0113,0.0198,–
"N=C(NCCCCCCNC(=N)NC(=N)Nc1ccc(Cl)cc1)NC(=N)Nc1ccc(Cl)cc1.O=C(O)C(O)C(O)C(O)C(O)C(O)CO.O=C(O)C(O)C(O)C(O)C(O)C(O)CO [RM14A, Chlorhexidine di-β73-glucoheptonate]",0.0130,0.0126,0.0135,0.0113,0.0168,–
"N=C(NCCCCCCNC(=N)NC(=N)Nc1ccc(Cl)cc1)NC(=N)Nc1ccc(Cl)cc1.O=C(O)C(O)C(O)C(O)C(O)C(O)CO.O=C(O)C(O)C(O)C(O)C(O)C(O)CO [RM15, chlorhexidine di-β81-glucoheptonate]",–,–,–,–,–,fall more rapidly and to a lower value than either the di-α-glucoheptonate or the comparative digluconate salt

# The next lines start with results.
"Calculated CMC, All Points [1] [M]","Calculated CMC, Average [1] [M]","Calculated CMC, Inner Points [1] [M]","Calculated CMC, Outer Points [1] [M]",Calculated CMC [2] [M],Structure (SMILES),"surface tension versus bubble age (rate and magnitude of reduction) ([2]; sub-CMC, CMC and super-CMC concentrations, FIGS. 1-7)"
0.0133,0.0126,0.0128,0.0118,0.0168,"N=C(NCCCCCCNC(=N)NC(=N)Nc1ccc(Cl)cc1)NC(=N)Nc1ccc(Cl)cc1.O=C(O)[C@H](O)[C@@H](O)[C@H](O)[C@H](O)CO.O=C(O)[C@H](O)[C@@H](O)[C@H](O)[C@H](O)CO [RM12A, Chlorhexidine digluconate]",–
0.0133,0.0131,0.0143,0.0116,0.0195,"N=C(NCCCCCCNC(=N)NC(=N)Nc1ccc(Cl)cc1)NC(=N)Nc1ccc(Cl)cc1.O=C(O)[C@H](O)[C@@H](O)[C@H](O)[C@H](O)CO.O=C(O)[C@H](O)[C@@H](O)[C@H](O)[C@H](O)CO [RM12C, Chlorhexidine digluconate]",–
0.0132,0.0126,0.0131,0.0116,0.0167,"N=C(NCCCCCCNC(=N)NC(=N)Nc1ccc(Cl)cc1)NC(=N)Nc1ccc(Cl)cc1.O=C(O)C(O)C(O)C(O)C(O)C(O)CO.O=C(O)C(O)C(O)C(O)C(O)C(O)CO [RM13B, Chlorhexidine di-α-glucoheptonate]",–
0.0132,0.0132,0.0152,0.0113,0.0167,"N=C(NCCCCCCNC(=N)NC(=N)Nc1ccc(Cl)cc1)NC(=N)Nc1ccc(Cl)cc1.O=C(O)C(O)C(O)C(O)C(O)C(O)CO.O=C(O)C(O)C(O)C(O)C(O)C(O)CO [RM14B, Chlorhexidine di-β73-glucoheptonate]",–

# From patent US20240197938A1, “ANTIMICROBIAL COMPOUNDS BASED ON GLUCOHEPTONIC ACIDS AND THEIR SALTS” (HARCROS CHEMICALS, INC., priority 2021, published 2024)
